Assay results reported in ChEMBL document CHEMBL1201862, “PubChem BioAssay data set” (2004).
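In this assay, cells in 96-well plates receive the compound at five concentrations for 48 hours. Endpoints are linearly interpolated between the surrounding concentrations. GI50 is the concentration that inhibits growth by half.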 Active and inactive are the calls of the source. Cut-off read from the data, not from the text of the source: active = GI50 up to about 1.1 µM and inactive = higher.

What was measured:
Experiment in all cases: inhibition of tumour cell growth, NCI panel, 48 h
[1] = test system: CAKI-1
[2] = test system: SF-295
[3] = test system: RXF 631
[4] = test system: HOP-18
[5] = test system: UO-31
[6] = test system: OVCAR-5
[7] = test system: HL-60
[8] = test system: LOX IMVI
[9] = test system: UACC-257
[10] = test system: NCI-H522
[11] = test system: UACC-62
[12] = test system: SNB-75
[13] = test system: SN12C
[14] = test system: U-251
[15] = test system: SF-539
[16] = test system: M19-MEL
[17] = test system: HT-29
[18] = test system: KM-20L2
[19] = test system: SNB-19
[20] = test system: HCT-15
[21] = test system: HOP-92
[22] = test system: CCRF-CEM
[23] = test system: SK-MEL-28
[24] = test system: EKVX
[25] = test system: KM12
[26] = test system: SK-OV-3
[27] = test system: SK-MEL-2
[28] = test system: 786-0
[29] = test system: IGROV-1
[30] = test system: RPMI-8226
[31] = test system: ACHN
[32] = test system: OVCAR-4
[33] = test system: SK-MEL-5
[34] = test system: OVCAR-8
[35] = test system: K562
[36] = test system: DMS-273
[37] = test system: HCC 2998
[38] = test system: SF-268
[39] = test system: LXFL 529
[40] = test system: NCI-H460
[41] = test system: MOLT-4
[42] = test system: RXF 393
[43] = test system: A549
[44] = test system: OVCAR-3
[45] = test system: M14
[46] = test system: Malme-3M
[47] = test system: XF498
[48] = test system: DLD-1
[49] = test system: NCI-H23
[50] = test system: A498
[51] = test system: SW-620
[52] = test system: COLO 205
[53] = test system: TK-10
[54] = test system: SNB-78
[55] = test system: HCT-116
[56] = test system: NCI-H226
[57] = test system: DMS-114
[58] = test system: HOP-62
[59] = test system: SR

With `CCCCCCCCCCOC(=O)NCCC` the GI50 [1] was 35.5 µM (inactive), the GI50 [2] was 38.5 µM (inactive) and the GI50 [3] was 27.6 µM (inactive). The GI50 [4] was 26.7 µM (inactive), the GI50 [5] was 16.2 µM (inactive) and the GI50 [6] was 24.4 µM (inactive). For the same molecule, the GI50 [7] was 13.9 µM (inactive), the GI50 [8] was 18.2 µM (inactive) and the GI50 [9] was 30.2 µM (inactive). The GI50 [10] was 18.7 µM (inactive), the GI50 [11] was 38.5 µM (inactive) and the GI50 [12] was 49.2 µM (inactive). The GI50 [13] was 28 µM (inactive), the GI50 [14] was 24.9 µM (inactive) and the GI50 [15] was 59.7 µM (inactive). The GI50 [16] was 34.5 µM (inactive), the GI50 [17] was 21.4 µM (inactive) and the GI50 [18] was 22.8 µM (inactive). For the same molecule, the GI50 [19] was 34.4 µM (inactive), the GI50 [20] was 21 µM and the GI50 [21] was 11.6 µM (inactive). The GI50 [22] was 18.5 µM (inactive), the GI50 [23] was 28.8 µM (inactive) and the GI50 [24] was 25.9 µM (inactive). For the same molecule, the GI50 [25] was 36.1 µM (inactive), the GI50 [26] was 54.8 µM (inactive) and the GI50 [27] was 16.7 µM (inactive). The GI50 [28] was 28.1 µM (inactive), the GI50 [29] was 64.1 µM (inactive) and the GI50 [30] was 17.9 µM (inactive). The GI50 [31] was 28.8 µM (inactive), the GI50 [32] was 21.6 µM (inactive) and the GI50 [33] was 23.9 µM (inactive). The GI50 [34] was 30.5 µM (inactive), the GI50 [35] was 29.9 µM (inactive) and the GI50 [36] was 20.6 µM (inactive). The GI50 [37] was 18.2 µM (inactive), the GI50 [38] was 29.1 µM (inactive) and the GI50 [39] was 38 µM (inactive). The GI50 [40] was 25.8 µM (inactive), the GI50 [41] was 17.2 µM (inactive) and the GI50 [42] was 15.9 µM (inactive). The GI50 [43] was 36.6 µM (inactive), the GI50 [44] was 33.3 µM (inactive) and the GI50 [45] was 29.4 µM (inactive). The GI50 [46] was 21.4 µM (inactive), the GI50 [47] was 18.2 µM (inactive) and the GI50 [48] was 34.8 µM (inactive). The GI50 [49] was 33.1 µM (inactive), the GI50 [50] was 31.7 µM (inactive) and the GI50 [51] was 48.6 µM (inactive). The GI50 [52] was 40.5 µM (inactive) and the GI50 [53] was 34.5 µM (inactive).
With `COc1ccc(OC)c(NC(=O)C(=O)C(C(=O)c2ccccc2F)C2OC(=O)c3ccccc32)c1` (centres undefined) the GI50 [1] was 67.8 µM (inactive), the GI50 [2] was 45.8 µM (inactive) and the GI50 [3] was 34.7 µM (inactive). The GI50 [5] was 50.6 µM (inactive), the GI50 [6] was 79.4 µM (inactive) and the GI50 [54] was 36.8 µM (inactive). The GI50 [7] was 34.8 µM (inactive), the GI50 [8] was 25.2 µM (inactive) and the GI50 [9] was > 100 µM (inactive). For the same molecule, the GI50 [10] was 23.5 µM (inactive), the GI50 [11] was 36.4 µM (inactive) and the GI50 [12] was 39.7 µM (inactive). The GI50 [13] was 35.9 µM (inactive), the GI50 [55] was 37.3 µM (inactive) and the GI50 [14] was 19.1 µM (inactive). For the same molecule, the GI50 [15] was 26.9 µM (inactive), the GI50 [16] was 29.1 µM (inactive) and the GI50 [17] was 45.5 µM (inactive). The GI50 [18] was 51.9 µM (inactive), the GI50 [19] was 36 µM (inactive) and the GI50 [20] was 62.5 µM. For the same molecule, the GI50 [21] was > 100 µM (inactive), the GI50 [22] was 21.8 µM (inactive) and the GI50 [23] was 39.7 µM (inactive). For the same molecule, the GI50 [24] was 62.2 µM (inactive), the GI50 [25] was > 100 µM (inactive) and the GI50 [26] was 59.4 µM (inactive). The GI50 [56] was 16.6 µM (inactive), the GI50 [27] was 43.1 µM (inactive) and the GI50 [29] was 89.3 µM (inactive). The GI50 [30] was 32.4 µM (inactive), the GI50 [31] was 82.6 µM (inactive) and the GI50 [32] was 66.8 µM (inactive). The GI50 [33] was 79.1 µM (inactive), the GI50 [34] was 35.1 µM (inactive) and the GI50 [35] was 42.8 µM (inactive). For the same molecule, the GI50 [57] was 20.8 µM (inactive), the GI50 [36] was 30.6 µM (inactive) and the GI50 [37] was 44.8 µM (inactive). For the same molecule, the GI50 [38] was 22.8 µM (inactive), the GI50 [39] was 77.3 µM (inactive) and the GI50 [40] was 44.8 µM (inactive). For the same molecule, the GI50 [58] was 50.2 µM (inactive), the GI50 [59] was 23.5 µM (inactive) and the GI50 [41] was 26.3 µM (inactive). The GI50 [42] was 25.5 µM (inactive), the GI50 [43] was 71.1 µM (inactive) and the GI50 [45] was > 100 µM (inactive). The GI50 [47] was 34.8 µM (inactive), the GI50 [48] was 42 µM (inactive) and the GI50 [49] was 57.1 µM (inactive). For the same molecule, the GI50 [50] was > 100 µM (inactive), the GI50 [51] was 49.2 µM (inactive) and the GI50 [52] was 48.3 µM (inactive). The GI50 [53] was > 100 µM (inactive).
`CCOC(=O)C(C)(C)Oc1ccc2c(C)c(-c3ccc(Cl)cc3)c(=O)oc2c1` was tested, and the GI50 [2] was 79.6 µM (inactive), the GI50 [3] was 32.6 µM (inactive) and the GI50 [5] was 55.5 µM (inactive). The GI50 [7] was 18.2 µM (inactive), the GI50 [8] was 34.9 µM (inactive) and the GI50 [9] was 43.8 µM (inactive). The GI50 [11] was 32.5 µM (inactive), the GI50 [12] was 35.8 µM (inactive) and the GI50 [13] was > 100 µM (inactive). For the same molecule, the GI50 [55] was 43 µM (inactive), the GI50 [14] was 42.4 µM (inactive) and the GI50 [15] was > 100 µM (inactive). The GI50 [16] was 54.2 µM (inactive), the GI50 [17] was 20.7 µM (inactive) and the GI50 [18] was 33.2 µM (inactive). The GI50 [19] was 51.1 µM (inactive), the GI50 [20] was 34.3 µM and the GI50 [22] was 14.5 µM (inactive). For the same molecule, the GI50 [23] was > 100 µM (inactive), the GI50 [24] was 70.3 µM (inactive) and the GI50 [56] was 14.9 µM (inactive). For the same molecule, the GI50 [27] was > 100 µM (inactive), the GI50 [28] was > 100 µM (inactive) and the GI50 [29] was 75.9 µM (inactive). The GI50 [30] was 22.6 µM (inactive), the GI50 [31] was 98.6 µM (inactive) and the GI50 [32] was > 100 µM (inactive). The GI50 [33] was 13.4 µM (inactive), the GI50 [34] was > 100 µM (inactive) and the GI50 [35] was 14.7 µM (inactive). For the same molecule, the GI50 [57] was 20.4 µM (inactive), the GI50 [36] was 37.6 µM (inactive) and the GI50 [37] was 59 µM (inactive). For the same molecule, the GI50 [38] was > 100 µM (inactive), the GI50 [39] was 34.1 µM (inactive) and the GI50 [40] was > 100 µM (inactive). The GI50 [58] was 89.1 µM (inactive), the GI50 [59] was 27.7 µM (inactive) and the GI50 [41] was 20 µM (inactive). For the same molecule, the GI50 [42] was > 100 µM (inactive), the GI50 [43] was 37.6 µM (inactive) and the GI50 [44] was 85.1 µM (inactive). The GI50 [45] was 74.8 µM (inactive), the GI50 [46] was 33.3 µM (inactive) and the GI50 [47] was 20.3 µM (inactive). The GI50 [48] was 47.6 µM (inactive), the GI50 [49] was 19.6 µM (inactive) and the GI50 [50] was > 100 µM (inactive). The GI50 [51] was > 100 µM (inactive), the GI50 [52] was 42.6 µM (inactive) and the GI50 [53] was > 100 µM (inactive).
`NCCCNCCS` [WR-1065] was tested, and the GI50 [1] was > 100 µM (inactive), the GI50 [2] was > 100 µM (inactive) and the GI50 [3] was > 100 µM (inactive). For the same molecule, the GI50 [4] was > 100 µM (inactive), the GI50 [5] was > 100 µM (inactive) and the GI50 [6] was > 100 µM (inactive). The GI50 [54] was > 100 µM (inactive), the GI50 [7] was > 100 µM (inactive) and the GI50 [9] was > 100 µM (inactive). The GI50 [11] was > 100 µM (inactive), the GI50 [13] was > 100 µM (inactive) and the GI50 [14] was > 100 µM (inactive). For the same molecule, the GI50 [17] was > 100 µM (inactive), the GI50 [18] was > 100 µM (inactive) and the GI50 [19] was > 100 µM (inactive). For the same molecule, the GI50 [20] was > 100 µM, the GI50 [21] was > 100 µM (inactive) and the GI50 [24] was > 100 µM (inactive). The GI50 [25] was > 100 µM (inactive), the GI50 [26] was > 100 µM (inactive) and the GI50 [27] was > 100 µM (inactive). For the same molecule, the GI50 [32] was > 100 µM (inactive), the GI50 [33] was > 100 µM (inactive) and the GI50 [34] was > 100 µM (inactive). The GI50 [35] was > 100 µM (inactive), the GI50 [36] was > 100 µM (inactive) and the GI50 [37] was > 100 µM (inactive). For the same molecule, the GI50 [38] was > 100 µM (inactive), the GI50 [39] was > 100 µM (inactive) and the GI50 [41] was > 100 µM (inactive). For the same molecule, the GI50 [42] was > 100 µM (inactive), the GI50 [43] was > 100 µM (inactive) and the GI50 [45] was > 100 µM (inactive). The GI50 [47] was > 100 µM (inactive) and the GI50 [53] was > 100 µM (inactive).
